According to patent US20140023602A1, “EXTERNAL PREPARATION FOR SKIN CONTAINING A PHOSPHORYLATED SACCHARIDE” (EZAKI GLICO CO., LTD., priority 2005, published 2014):
Where “and” joins values, the source holds several entries; their conditions need not be identical. Equal entries are not always repeated.

Key:
[1] = tested on: Normal human skin fibroblast cells; assay: Collagen production by human skin fibroblast, Sircol collagen assay; type: cell-based
Description: (§1) Normal human skin fibroblast cells were adjusted with 10% D-MEM (manufactured by Invitrogen) to a density of 2.5×10^4 cells per well, and preincubated on the 96-well plate for 24 hours. After removal of the medium, phosphorylated saccharide calcium salt adjusted to a concentration of 1% with 4% D-MEM was added to each well as a test sample, and then the mixture was cultured at 37° C. under 5% CO2 for 72 hours. After the completion of the culture, the amount of collagen in the medium was measured. The amount of collagen was measured by using a Sircol collagen assay Kit (manufactured by Biocolor Ltd.).
(§2) Normal human skin fibroblast cells were adjusted with 10% D-MEM (manufactured by Invitrogen) to a density of 2.5×10^4 cells per well, and preincubated on the 96-well plate for 24 hours. After removal of the medium, phosphorylated saccharide calcium salt adjusted to a concentration of 1% with 4% D-MEM and 0.0044% ascorbic acid as a test sample, or 0.0044% ascorbic acid as a control was added to each well, and then the mixture was cultured at 37° C. under 5% CO2 for 72 hours. After the completion of the culture, the amounts of collagen in the medium and on the cell surface were measured. The amount of collagen was measured by using a Sircol collagen assay Kit (manufactured by Biocolor Ltd.). The collagen on cell surface was measured after pepsin treatment.
as §1, with “potassium” for “calcium”, “then” for “then the mixture was”
as §2, with “phosphorylated saccharide potassium salt adjusted” for “phosphorylated saccharide calcium salt adjusted”, “acid as control was” for “acid as a control was”, “medium and the cell” for “medium and on the cell”

[2] = buffer; for Water retention ratio: Remaining ratio after 1 minute (%): 1 min
Description: 0.1% to 1% Aqueous phosphorylated saccharide mineral salt solutions were prepared. Ten μl/paper of the aqueous phosphorylated saccharide mineral salt solution was impregnated into a paper disc (8 mm) [manufactured by Advantech], and the water-retention effect was evaluated by measuring the remaining water over time for 10 minutes under a constant condition. For comparison, 0.1% solution of hyaluronic acid or 1% solution of glycerol, which are known as water retention component, were used. Distilled water was used as a control.

[3] = inorganic chloride as comparison, concentration not given

Water retention ratio: Remaining ratio after 1 minute (%) [2] [%] | Water retention ratio: Remaining ratio after 10 minutes (%) [2] [%] | Compound | induction of collagen production (in words) [1, 3] | other results
 |  | O=C1O[C@H]([C@@H](O)CO)C(O)=C1O [ascorbic acid] |  | amount of collagen in the medium ([1]; 0.0044% ascorbic acid alone, 72 hours): 55.1 µg/mL and 44.1 µg/mL and 50.1 µg/mL and 52.1 µg/mL; amount of collagen on the cell surface ([1]; 0.0044% ascorbic acid alone, 72 hours, after pepsin treatment): 23.1 µg/mL and 23.0 µg/mL and 21.3 µg/mL; increase of amount of collagen in the medium compared to control well ([1]; 0.0044% ascorbic acid in 4% FBS-DMEM, 72 hours): 1.4 µg
 |  | [Ca+2].[Cl-].[Cl-] [calcium chloride] | no induction of collagen production was observed | 
98.84 | 88.23 | OCC(O)CO [glycerol] |  | 
 |  | [Cl-].[Cl-].[Mg+2] [magnesium chloride] | no significant collagen production induction was observed | 
 |  | [Cl-].[K+] [potassium chloride] |  | induction of the collagen production (amount of collagen) ([1]; inorganic chloride as comparison, concentration not given, 72 hours): 2.2 µg/mL
98.84 | 83.73 | hyaluronic acid |  | 
